Measured values published in patent US3932384A, “Dibenzazecines” (Shionogi & Co., Ltd., priority 1972, dated 1976).

Assays:
[1] = Acute toxicity (mortality, LD50) in mice; conditions: mouse, in vivo; DS-mice; mortality during 72 hours after administration; Bliss' method
Method: Ten DS-mice (15 to 17 g body weight, male and female) in every group are used in the test at each dose level. Each assay compound is tested in 4 to 5 doses. The mortality is counted during a period of 72 hours after the administration of the test compound. The LD50 is calculated by the Bliss' method.

DS-mice [2] = assay: Analgesic activity (Haffner method), tail-root pinch in mice; format: in vivo; conditions: Mus musculus, tail-root pinch with forceps, no withdrawal response within 3 seconds, Bliss' method, read-out: Analgesic action, Haffner (ED50)
Method: 2. Analgesic activity (Haffner method);
The tail-roots of DS-mice (15 to 17 g body weight, male and female) are pinched with a pair of forceps. Pain responses, such as biting, head turning and vocalization are observed. All of the control animals respond to the noxious stimulus with in a period of one second. […] The ED50 is calculated by the Bliss' method [Ann. Appl. Biol., 22, 134; 307 (1935); Quat. J. Pharmacol., 11, 192 (1938)].

DS-mice [3] = assay: Analgesic activity (Writhing method), phenylquinone-induced writhing in mice; format: in vivo; conditions: Mus musculus, ip, 0.25 h, phenylquinone i.p. 0.2 mg/10 g, 15 minutes, up-and-down method, read-out: Analgesic action, Writhing (ED50)
Method: 1. Analgesic activity (Writhing method);
DS-mice (15 to 17 g body weight, male and female) are treated with an intraperitoneal injection of 0.2 mg/10 g of 0.02 % phenylquinone solution as a writhing inducer and kept in an individual observation cage for 15 minutes after the administration of phenylquinone. […] The ED50 is calculated by the up-and-down method of Brownlee et al. [Fed.

Structure (SMILES)	LD50 at 72 h [1]	ED50 (DS-mice [2])	ED50 (DS-mice [3])
COc1ccc2c(c1OC)CN(C)CCc1ccc(O)cc1CC2 [Compound 2, 3,4-Dimethoxy-11-hydroxy-6-methyl-5,6,7,8.13,14-hexahydrodibenz[c,g]azecine]	54.9 mg/kg	58 mg/kg	23.2 mg/kg
CN1CCc2ccc(O)cc2CCc2ccc(O)c(O)c2C1 [Compound 1]	50 to 100 mg/kg	–	26 mg/kg
COc1ccc2c(c1OC)CN(C)CCc1cc(O)ccc1CC2 [Compound 3, 3,4-Dimethoxy-10-hydroxy-6-methyl-5,6,7,8,13,14-hexahydrodibenz[c,g]azecine]	231 mg/kg	37.9 mg/kg	22.3 mg/kg
CN1CCc2ccc(O)cc2CCc2cccc(O)c2C1.[O-][Cl+3]([O-])([O-])O [Compound 5, 4,11-Dihydroxy-6-methyl-5,6,7,8,13,14-hexahydrodibenz[c,g]azecine perchlorate]	300 mg/kg	–	50 mg/kg
COc1ccc2c(c1OC)CN(C)CCc1cc(CO)c(O)cc1CC2 [Compound 4, 3,4-dimethoxy-11-hydroxy-10-hydroxymethyl-6-methyl-5,6,7,8,13,14-hexahydrodibenz[c,g]azecin]	> 500 mg/kg	–	45 mg/kg
COc1ccc2c(c1OC)CNCCc1cc(O)ccc1CC2 [Compound 7, 3,4-dimethoxy-10-hydroxy-5,6,7,8,13,14-hexahydrodibenz[c,g]azecine]	500 mg/kg	250 mg/kg	26.5 mg/kg
Cc1c(N(C)C)c(=O)n(-c2ccccc2)n1C [Aminopyrine, reference compound]	335 mg/kg	138 mg/kg	44 mg/kg
Br.CN1CCc2cc(O)ccc2CCc2ccc(O)c(O)c2C1 [Compound 6, 6-Methyl-3,4,10-trihydroxy-5,6,7,8,13,14-hexahydrodibenz[c,g]azecine hydrobromide]	300 mg/kg	–	75 mg/kg
